In publication PMC12778052 (Science Advances, 2026):

Tests used:
human Nectin-4 = target: T1, human Nectin-4 (Homo sapiens, UniProt Q96NY8); assay: SPR affinity for recombinant human Nectin-4; type: binding; conditions: human Nectin-4
T1 construct: purchased R&D Systems 2659-N4-050
T1 sequence (Q96NY8 32-349 limits assumed): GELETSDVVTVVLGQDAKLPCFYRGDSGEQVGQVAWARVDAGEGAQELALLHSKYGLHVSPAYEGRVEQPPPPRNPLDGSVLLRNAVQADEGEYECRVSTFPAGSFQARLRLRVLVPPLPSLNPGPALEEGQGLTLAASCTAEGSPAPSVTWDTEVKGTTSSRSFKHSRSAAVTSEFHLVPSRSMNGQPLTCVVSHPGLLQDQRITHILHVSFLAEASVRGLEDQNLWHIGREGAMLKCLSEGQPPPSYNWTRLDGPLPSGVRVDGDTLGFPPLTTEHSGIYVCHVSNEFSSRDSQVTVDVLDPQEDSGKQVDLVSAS
Protocol: (§1) The affinity of AJ647 for human and mouse Nectin-4 recombinant proteins was evaluated by SPR. The experiments were conducted using a Biacore T200 instrument with a CM5 chip at 25°C. The ligands used were His-tagged human Nectin-4 (R&D Systems, catalog no. 2659-N4-050, 44 kDa, 0.2 mg/ml stock concentration) and mouse Nectin-4 proteins (R&D Systems, catalog no. 3116-N4-050, 45 kDa, 0.2 mg/ml stock concentration), which were immobilized onto the CM5 chip. AJ647 (3057.5 Da, 10 mM stock concentration) was used as the analyte, which flowed over the ligand-immobilized surface. FC2 and FC4 was used as the experimental flow cell, while FC1 and FC3 served as the reference. An anti-His antibody (1 mg/ml stock concentration) was immobilized on all flow cells using standard amine coupling chemistry. […] Human Nectin-4 was captured onto FC2 at a level of ~600 RU, with a 1:20 dilution and 10 μg/ml diluted concentration in PBS-P. Mouse Nectin-4 was captured onto FC4 at a level of 600 RU, with a 1:20 dilution and 10 μg/ml diluted concentration in PBS-P. The theoretical maximum response (Rmax ) values were calculated on the basis of the captured response values (table S1), assuming a 1:1 interaction mechanism. […] All association and dissociation kinetics were evaluated by 1:1 kinetics model fitting.

mouse Nectin-4 = target: T2, mouse Nectin-4 (Mus musculus, UniProt Q8R007); assay: SPR affinity for recombinant mouse Nectin-4; type: binding; conditions: mouse Nectin-4
T2 construct: purchased R&D Systems 3116-N4-050
T2 sequence (Q8R007 31-347 limits assumed): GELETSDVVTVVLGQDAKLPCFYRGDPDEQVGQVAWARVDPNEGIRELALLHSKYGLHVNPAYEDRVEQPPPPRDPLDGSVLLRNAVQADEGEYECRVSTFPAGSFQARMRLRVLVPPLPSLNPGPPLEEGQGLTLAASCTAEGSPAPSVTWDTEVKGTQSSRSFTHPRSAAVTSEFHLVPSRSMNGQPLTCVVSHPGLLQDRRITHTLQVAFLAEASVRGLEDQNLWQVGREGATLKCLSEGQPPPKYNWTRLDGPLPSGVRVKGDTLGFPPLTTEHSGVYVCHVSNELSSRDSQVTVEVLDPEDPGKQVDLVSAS
Protocol: as §1

HT1376 tumors = assay: EV effect on Nectin-4 temporal PD, [^68Ga]AJ647 PET; type: in vivo, NSG mice
Protocol: Mice with tumor volumes of ~100 to 150 mm^3 were injected with ~200 μCi [7.4 megabecquerels (MBq)] of [^68Ga]AJ647 in […] of 5% ethanol in saline intravenously and anesthetized under 2.5% isoflurane. PET-computed tomography (CT) images were acquired at 60 min after radiotracer injection at 5 min per bed in an ARGUS small-animal PET/CT scanner (Sedecal, Madrid, Spain) as described previously (n = 3, unless otherwise noted). PET-MR images were acquired on a simultaneous 7T Bruker PET-MR scanner. Dynamic imaging was conducted to evaluate the PK of [^68Ga]AJ647. [^68Ga]AJ647 was injected (with the help of a catheter) after mice were anesthetized under 2.5% isoflurane on the equipment bed. All PET data were reconstructed using the two-dimensional (2D) ordered subset expectation maximization algorithm and corrected for radioactive decay and dead times. The SUV values were calculated by finding %IA on the basis of a calibration factor obtained from a known radioactive quantity and then normalizing by mice weight. Amide software was used to derive SUV values by drawing the region of interest to closely fit tumors. In particular, MR images were used to identify tumor boundaries manually; these boundaries were transferred to co-registered PET images to derive SUVs. This process was repeated for each mouse individually in a blinded fashion. For the change in accessible Nectin-4 following EV treatment, ΔSUV was calculated by subtracting baseline (pre-treatment) uptake from posttherapy uptake of [^68Ga]AJ647. TE was quantified by normalizing this change by initial SUV in the same subject controls. Image fusion, visualization, and 3D rendering were accomplished using Amira 2020.3.1 (FEI, Hillsboro, OR). The dose-time PD of Nectin-4 following EV treatment was studied at doses of 6, 9, and 15 mg/kg. Experiments involving PET imaging were performed first. Male NSG mice were inoculated with 4 million HT1376 cells at day 0. On day 23 (average tumor volume, 150 ± 30 mm^3), mice were randomized to receive either saline or a single dose of EV (6, 9, or 15 mg/kg) intravenously (n = 3 for each dose and n = 2 for saline). Mice (n = 2) from each dose group and saline group were imaged on days 1, 3, and 6 following EV treatment. Once PET imaging results were analyzed, ex vivo distribution experiment was performed with n = 16 to 18 for each dose and n = 10 for saline. Treated mice (n = 8 or 9 per dose per time point) along with saline controls (n = 5 per time point) were euthanized on days 1 and 6. Biodistribution studies were performed at 60 min after [^68Ga]AJ647 injection, as described above. PD metrics were defined as follows Accessible Nectin−4=SUVpost/SUVpre∗100 Nectin−4 TE=(SUVpre−SUVpost)/SUVpre∗100

`CSCC[C@@H]1NC(=O)[C@@H]2CSCCC(=O)N3CN(CN(C3)C(=O)CCSC[C@H](NC(=O)CCOCCOCCOCCOCCOCCOCCOCCOCCOCCOCCOCCOCCNC(=O)CN3CCN(CC(=O)O)CCN(CC(=O)O)CC3)C(=O)N3CCC[C@H]3C(=O)N[C@@H](Cc3cccc4ccccc34)C(=O)N[C@@H](CC(=O)O)C(=O)N2)C(=O)CCSC[C@@H](C(N)=O)NC(=O)[C@H](Cc2c[nH]c3ccccc23)NC(=O)[C@@H]2C[C@@H](O)CN2C(=O)[C@@H]2CCCN2C(=O)[C@H]([C@@H](C)O)NC(=O)[C@H](CO)NC(=O)[C@H](Cc2c[nH]c3ccccc23)NC(=O)[C@@H](CC(=O)O)NC(=O)[C@H](CCCCNC(=N)N)NC1=O` [[^68Ga]AJ647, metal not drawn] showed a koff (human Nectin-4) of 0.0106 ± 0.00159 s⁻¹ and a koff (mouse Nectin-4) of 0.0101 ± 0.00295 s⁻¹.

In the case of enfortumab vedotin [EV], the “Nectin-4 engagement by PET” value (HT1376 tumors; day 1, EV 6, 9 or 15 mg/kg single dose) is reported as “full occupancy of Nectin-4”, the “Nectin-4 engagement by PET” value (HT1376 tumors; day 3, EV 6 mg/kg) is reported as “increase in [^68Ga]AJ647 uptake” and the “Nectin-4 engagement by PET” value (HT1376 tumors; day 3, EV 9 and 15 mg/kg) is reported as “low tracer uptake”. The “Nectin-4 engagement by PET” value (HT1376 tumors; day 6, EV 6 mg/kg) was “significant increase in [^68Ga]AJ647 uptake”, the “Nectin-4 engagement by PET” value (HT1376 tumors; day 6, EV 9 mg/kg) was “moderate increase in uptake” and the “Nectin-4 engagement by PET” value (HT1376 tumors; day 6, EV 15 mg/kg) was “minimal tracer uptake”.
